Test results reported in patent US20190209501A1, “COMPOSITIONS AND METHODS OF USE OF BETA-HYDROXY-BETA-METHYLBUTYRATE (HMB) […] IN[…]” (Texas Tech University Office of Research Commercialization, priority 2018, published 2019).

Assays:
[1] = 1-repetition maximum and repetitions to failure, bench press and hip sled (leg press); format: in vivo, human; conditions: for 1RMBP (kg) Week 4 / 1RMBP (kg) Week 8: 1-repetition maximum bench press; for 1RMBP (kg) Week 4 / 1RMBP (kg) Week 8 / 1RMLP (kg) Week 8 / RTFBP (reps) Week 4 / RTFBP (reps) Week 8 / RTFLP (reps) Week 8: mean ± SE; for 1RMLP (kg) Week 8: 1-repetition maximum leg press; for 1RMBP Δ (%) / 1RMLP Δ (%) / RTFBP Δ (%) / RTFLP Δ (%): change baseline to week 8 relative to baseline; for RTFBP (reps) Week 4 / RTFBP (reps) Week 8: repetitions to failure bench press; for RTFBP (reps) Week 4 / RTFBP (reps) Week 8 / RTFLP (reps) Week 8: 70% of baseline 1-RM; for RTFLP (reps) Week 8: repetitions to failure leg press; for 1RMBP (kg) Δ / 1RMLP (kg) Δ / RTFBP (reps) Δ / RTFLP (reps) Δ: week 8 minus baseline
Excerpt: Assessments of muscular performance took place between 12:00 and 18:00 in the non-fasted state, and participants were instructed to follow their preferred food and fluid intake patterns prior to testing. The assessment began with a 5-minute warm up period using a self-selected pace on a stationary bicycle. This warm up period was followed by assessment of countermovement vertical jumps (CMVJ) performance, testing on a mechanized squat device, and muscular strength and endurance assessment on the bench press and hip sled exercises. At the 4-week assessment, the CMVJ and hip sled assessments were not performed.
Resistance exercise performance for the bench press and hip sled exercises was evaluated via the 1-repetition maximum (1RM) and repetitions to failure with 70% of the 1RM. The 1RM testing protocol was based on the recommendations of the National Strength and Conditioning Association (33). Briefly, after completing warm up sets, participants completed 2 to 3 repetitions using a load estimated to be near-maximal. 1RM attempts then commenced, with the goal of obtaining the 1RM in between 3 and 5 attempts. Three minutes of rest were allowed between attempts. The maximal weight lifted with proper form was recorded as the 1RM. After the 1RM was obtained, a 3-minute rest period was allowed before repetitions to failure (RTF) were completed using 70% of the 1RM. For all participants, the bench press was tested before the leg press in order to allow for recovery of the lower body following the mechanized squat testing.

[2] = 3 g/d Calcium-HMB without intermittent fasting + RT, cited from earlier work
[3] = Resistance training workout volume; format: in vivo, human; conditions: for LB Volume ES (d) / LS Session Volume ES (d) / UB Session Volume ES (d) / UB Volume ES (d): effect size; for LB Volume Δ / LB Volume Δ (%) / LS Session Volume Δ / LS Session Volume Δ (%) / UB Session Volume Δ / UB Session Volume Δ (%) / UB Volume Δ / UB Volume Δ (%): first to second 4 weeks
Excerpt: All groups completed 8 weeks of supervised RT in conjunction with the assigned dietary and supplementation programs. Training took place within the research laboratories under direct supervision. RT sessions were completed on 3 nonconsecutive days each week (i.e. Mondays, Wednesdays and Fridays), and upper- and lower-body sessions were alternated (Table 1).
Participants were instructed to train to momentary muscular exhaustion for each set, and the load was adjusted as necessary to ensure compliance with the specified repetition range. The weights and repetitions completed for each set of each exercise were recorded to allow for calculation of RT volume. Sessions took place between 12:00 and 18:00. […] Following each RT session, participants from each group were provided with 25 g whey protein (Elite 100% Whey, Dymatize Enterprises, LLC, Dallas, Tex. USA).

[4] = Percent body fat by underwater weighing, HMB without intermittent fasting (Panton et al.); format: in vivo, human; conditions: 3 g/d Calcium-HMB without intermittent fasting + RT
Experimental: In an earlier study described in Panton et al. (54) trained and untrained females (n=18, 27±2.1 y, 62.3±2.2 kg) were randomized to 3 g/d Calcium-HMB without intermitted fasting. The HMB only group completed 4 weeks of supervised resistance training and trained three times per week. Body composition was measured before and after the 4 weeks of training using underwater weighing procedures (55). Percent body fat (BF %) was estimated from the Siri equation^5.

[5] = ITT analysis, Cohen's d baseline vs week 8
[6] = PP analysis, Cohen's d baseline vs week 8

## CC(C)(O)CC(=O)O [TRFHMB, β-hydroxy-β-methylbutyrate]
[1]; ITT analysis
  1RMBP (kg) Week 4: 42.3 ± 2.4 kg
  1RMBP (kg) Week 8: 47.3 ± 2.5 kg
  1RMLP (kg) Week 8: 205.2 ± 15.0 kg
  1RMBP Δ (%): 21%
  1RMLP Δ (%): 57%
  RTFBP Δ (%): 68%
  RTFLP Δ (%): 145%
  RTFBP (reps) Week 4: 20.0 ± 1.6 reps
  RTFBP (reps) Week 8: 24.9 ± 1.8 reps
  RTFLP (reps) Week 8: 38.0 ± 5.4 reps
  1RMBP (kg) Δ: 8 kg
  1RMLP (kg) Δ: 75 kg
  RTFBP (reps) Δ: 10 reps
  RTFLP (reps) Δ: 23 reps
[1]; [5]
  1RMLP ES (d): 1.65
  RTFBP ES (d): 1.91
  RTFLP ES (d): 1.52
[1]; PP analysis only, vs 2.3 in CD
  Average ES for muscular endurance (RTFLP and RTFBP): 1.5
[1]; PP analysis
  1RMBP (kg) Week 4: 43 ± 4 kg
  1RMBP (kg) Week 8: 48 ± 4 kg
  1RMLP (kg) Week 8: 220 ± 19 kg
  1RMBP Δ (%): 20%
  1RMLP Δ (%): 51%
  RTFBP Δ (%): 79%
  RTFLP Δ (%): 94%
  RTFBP (reps) Week 4: 20 ± 2 reps
  RTFBP (reps) Week 8: 25 ± 3 reps
  RTFLP (reps) Week 8: 31 ± 6 reps
  1RMBP (kg) Δ: 8 kg
  1RMLP (kg) Δ: 74 kg
  RTFBP (reps) Δ: 11 reps
  RTFLP (reps) Δ: 15 reps
[1]; [6]
  1RMBP ES (d): 0.76
  1RMLP ES (d): 1.80
  RTFBP ES (d): 1.86
  RTFLP ES (d): 1.27
[2]; females n=18, from 23.7±1.1, nonsignificant
  BF % after 4 weeks: 23.0±1.2%
[2]
  BF % 4-week Δ-change: −0.7%
[3]; ITT, First 4 weeks
  LB Volume: 50374 ± 4107 kg
  LS Session Volume: 8734 ± 659 kg
  UB Session Volume: 2722 ± 210 kg
  UB Volume: 15715 ± 1317 kg
[3]; ITT, Second 4 weeks
  LB Volume: 56873 ± 4655 kg
  LS Session Volume: 10978 ± 902 kg
  UB Session Volume: 3336 ± 215 kg
  UB Volume: 17437 ± 1298 kg
[3]; ITT
  LB Volume ES (d): 0.41
  LS Session Volume ES (d): 0.79
  UB Session Volume ES (d): 0.80
  UB Volume ES (d): 0.37
  LB Volume Δ: 6499 kg
  LB Volume Δ (%): 13%
  LS Session Volume Δ: 2244 kg
  LS Session Volume Δ (%): 26%
  UB Session Volume Δ: 614 kg
  UB Session Volume Δ (%): 23%
  UB Volume Δ: 1722 kg
  UB Volume Δ (%): 11%
[3]; PP, First 4 weeks
  LB Volume: 54729 ± 5724 kg
  LS Session Volume: 9434 ± 944 kg
  UB Session Volume: 2869 ± 303 kg
  UB Volume: 16696 ± 1851 kg
[3]; PP, Second 4 weeks
  LB Volume: 60345 ± 6263 kg
  LS Session Volume: 11915 ± 1281 kg
  UB Session Volume: 3463 ± 297 kg
  UB Volume: 17923 ± 1749 kg
[3]; PP
  LB Volume ES (d): 0.34
  LS Session Volume ES (d): 0.83
  UB Session Volume ES (d): 0.75
  UB Volume ES (d): 0.26
  LB Volume Δ: 5616 kg
  LB Volume Δ (%): 10%
  LS Session Volume Δ: 2481 kg
  LS Session Volume Δ (%): 26%
  UB Session Volume Δ: 594 kg
  UB Session Volume Δ (%): 21%
  UB Volume Δ: 1227 kg
  UB Volume Δ (%): 7%
[4]
  BF % 4-week effect size (d): −0.15
